# Experimental data: patent US8796460B2, “Compounds for inhibiting KSP kinesin activity” (Mercky Sharp & Dohme Corp., priority 2007, dated 2014)
# System: HCT116 colon cancer cells
# Assay: KSP Cellular Assay (percent of cells staining positive for Phos-Histone H3 / Phos-MPM2)
# Type: cell-based
# Conditions: Homo sapiens, HCT-116, 16 h, Table 401; HCT116 cells, 16 hours with drug; read-out: ED50 (nM) Range
# Description: HCT116 colon cancer cells were grown in DMEM:F12 media with 10% heat inactivated FBS at 37 degrees with 5% CO2. Cells were plated at 7,500 cells per well in PDL coated 384-well tissue culture plates. 6 hours later media was removed and new media containing drug was added. Cells were incubated with drug for 16 hours. All further steps were performed at room temperature in the dark. Cells were fixed with 25 ul/well Prefer fixation solution plus 250 nM Hoechst dye and incubated for 30 minutes. The fixation solution was removed and cells were washed with PBS. Cells were then permeabilized with 25 ul/well 0.2% Triton-X in PBS and incubated for 10 minutes. Cells were washed with PBS and then incubated with 25 ul/well PBS containing 3% FBS for 30 minutes. Cells were then stained overnight at 4 degrees with 25 ul/well antibody solution in PBS plus 3% FBS. Antibodies used were Phos-Histone H3 (ser10)-Alexa Flur 488 Conjugate and Phos-MPM2 Texas Red Conjugate. Cells were washed with PBS and then immunofluorescence images captured with HT Pathway microscope. The percent of cells staining positive was calculated and EC50 values for the compounds of the invention that were tested were determined using Excel XLfit.
# EC50 Determinations: Dose-response curves were plotted from inhibition data generated each in duplicate, from 8 point serial dilutions of inhibitory compounds. Concentration of compound was plotted against enzyme activity (OD reading). To generate EC50 values, the dose-response curves were then fitted to a standard sigmoidal curve and EC50 values were derived by nonlinear regression analysis.
row,Compound,EC50
1,N[C@H](C(=O)N1N=C(c2cc(F)ccc2F)SC12CCCc1ccsc12)C1CC1 (stereo partly drawn) [compound 428],> 1000 nM
2,CN1CCC(C(=O)N2N=C(c3cc(F)ccc3F)SC23CCCc2ccsc23)CC1 (stereo not drawn) [compound 429],> 1000 nM
3,CC(C)(C)C(=O)N1N=C(c2cc(F)ccc2F)SC12CCOc1ccccc12 (stereo not drawn) [compound 430],> 1000 nM
4,O=C(c1cccnc1)N1N=C(c2cc(F)ccc2F)SC12CCOc1ccccc12 (stereo not drawn) [compound 431],> 1000 nM
5,O=C(c1ccccn1)N1N=C(c2cc(F)ccc2F)SC12CCOc1ccccc12 (stereo not drawn) [compound 432],> 1000 nM
6,NCCC(=O)N1N=C(c2cc(F)ccc2F)SC12CCOc1ccccc12 (stereo not drawn) [compound 433],500 to 1000 nM
7,NCCCC(=O)N1N=C(c2cc(F)ccc2F)SC12CCOc1ccccc12 (stereo not drawn) [compound 434],≤ 500 nM
8,CO[C@@H](C)C(=O)N1N=C(c2cc(F)ccc2F)SC12CCOc1ccccc12 (stereo partly drawn) [compound 435],500 to 1000 nM
9,C[C@H](O)C(=O)N1N=C(c2cc(F)ccc2F)SC12CCc1ccccc12 (stereo partly drawn) [compound 436],≤ 500 nM
10,NCCCC(=O)N1N=C(c2cc(F)ccc2F)SC12CCc1ccccc12 (stereo not drawn) [compound 437],≤ 500 nM
11,CN(C)CCCC(=O)N1N=C(c2cc(F)ccc2F)SC12CCc1ccccc12 (stereo not drawn) [compound 438],≤ 500 nM
12,NC1CCC(C(=O)N2N=C(c3cc(F)ccc3F)SC23CCc2ccccc23)CC1 (stereo not drawn) [compound 439],500 to 1000 nM
13,NC1CCC(C(=O)N2N=C(c3cc(F)ccc3F)SC23CCc2ccccc23)C1 (stereo not drawn) [compound 440],≤ 500 nM
14,COC(C)C(=O)N1N=C(c2cc(F)ccc2F)SC12CCc1ccccc12 (stereo not drawn) [compound 441],≤ 500 nM
15,NCCC(=O)N1N=C(c2cc(F)ccc2F)SC12CCc1ccccc12 (stereo not drawn) [compound 442],≤ 500 nM
16,NCCCCC(=O)N1N=C(c2cc(F)ccc2F)SC12CCc1ccccc12 (stereo not drawn) [compound 443],≤ 500 nM
17,NC(=O)CCC(=O)N1N=C(c2cc(F)ccc2F)SC12CCc1ccccc12 (stereo not drawn) [compound 444],≤ 500 nM
18,O=C(CC1CCCNC1)N1N=C(c2cc(F)ccc2F)SC12CCc1ccccc12 (stereo not drawn) [compound 446],500 to 1000 nM
19,O=C(CC1CCNCC1)N1N=C(c2cc(F)ccc2F)SC12CCc1ccccc12 (stereo not drawn) [compound 447],≤ 500 nM
20,O=C(CCC1CCCNC1)N1N=C(c2cc(F)ccc2F)SC12CCc1ccccc12 (stereo not drawn) [compound 448],> 1000 nM
21,O=C(Cc1ccncc1)N1N=C(c2cc(F)ccc2F)SC12CCc1ccccc12 (stereo not drawn) [compound 449],≤ 500 nM
22,O=C(Cc1cccnc1)N1N=C(c2cc(F)ccc2F)SC12CCc1ccccc12 (stereo not drawn) [compound 450],500 to 1000 nM
23,O=C(CC1CCNC1)N1N=C(c2cc(F)ccc2F)SC12CCc1ccccc12 (stereo not drawn) [compound 451],≤ 500 nM
24,CC(N)CCC(=O)N1N=C(c2cc(F)ccc2F)SC12CCc1ccccc12 (stereo not drawn) [compound 452],≤ 500 nM
25,CNCCCC(=O)N1N=C(c2cc(F)ccc2F)SC12CCc1ccccc12 (stereo not drawn) [compound 453],> 500 nM
26,O=C(CCCN1CCCC1)N1N=C(c2cc(F)ccc2F)SC12CCc1ccccc12 (stereo not drawn) [compound 454],≤ 500 nM
27,O=C1CCCN1CCCC(=O)N1N=C(c2cc(F)ccc2F)SC12CCc1ccccc12 (stereo not drawn) [compound 455],500 to 1000 nM
28,O=C(CCCN1CCCCC1)N1N=C(c2cc(F)ccc2F)SC12CCc1ccccc12 (stereo not drawn) [compound 456],≤ 500 nM
29,O=C(CCCN1CCOCC1)N1N=C(c2cc(F)ccc2F)SC12CCc1ccccc12 (stereo not drawn) [compound 457],≤ 500 nM

# Second part, the molecule after the results:
row,EC50,Compound
1,≤ 500 nM,NCCCC(=O)N1N=C(c2cc(F)ccc2F)S[C@]12CCOc1ccccc12 [compound 458]
2,> 500 nM,NCCCC(=O)N1N=C(c2cc(F)ccc2F)S[C@@]12CCOc1ccccc12 [compound 459]
3,≤ 500 nM,O=C(CC1CNC1)N1N=C(c2cc(F)ccc2F)SC12CCc1ccccc12 (stereo not drawn) [compound 460]
4,> 500 nM,O=C(CCC1CCCCN1)N1N=C(c2cc(F)ccc2F)SC12CCc1ccccc12 (stereo not drawn) [compound 461]
5,≤ 500 nM,O=C(CCC1CCNCC1)N1N=C(c2cc(F)ccc2F)SC12CCc1ccccc12 (stereo not drawn) [compound 462]
6,≤ 500 nM,CN(C)CCCC(=O)N1N=C(c2cc(F)ccc2F)SC12Cc1ccccc12 (stereo not drawn) [compound 463]
7,500 to 1000 nM,O=C(C1CC1)N1N=C(c2cc(F)ccc2F)SC12CCOc1ccccc12 (stereo not drawn) [compound 464]
8,≤ 500 nM,CCC(=O)N1N=C(c2cc(F)ccc2F)SC12CCOc1ccccc12 (stereo not drawn) [compound 465]
9,> 1000 nM,COCC(=O)N1N=C(c2cc(F)ccc2F)SC12CCOc1ccccc12 (stereo not drawn) [compound 466]
10,> 1000 nM,CC(C)C(=O)N1N=C(c2cc(F)ccc2F)SC12CCOc1ccccc12 (stereo not drawn) [compound 467]
11,> 1000 nM,CC(C)CC(=O)N1N=C(c2cc(F)ccc2F)SC12CCOc1ccccc12 (stereo not drawn) [compound 468]
12,> 1000 nM,NCC(=O)N1N=C(c2cc(F)ccc2F)SC12CCOc1ccccc12 (stereo not drawn) [compound 469]
13,> 1000 nM,O=C(N1N=C(c2cc(F)ccc2F)SC12CCOc1ccccc12)C(F)(F)F (stereo not drawn) [compound 470]
14,≤ 500 nM,O=C(C(F)F)N1N=C(c2cc(F)ccc2F)SC12CCOc1ccccc12 (stereo not drawn) [compound 471]
15,> 1000 nM,COCCOCC(=O)N1N=C(c2cc(F)ccc2F)SC12CCOc1ccccc12 (stereo not drawn) [compound 472]
16,500 to 1000 nM,O=C(CO)N1N=C(c2cc(F)ccc2F)SC12CCOc1ccccc12 (stereo not drawn) [compound 473]
17,> 1000 nM,O=C(c1ccncc1)N1N=C(c2cc(F)ccc2F)SC12CCOc1ccccc12 (stereo not drawn) [compound 474]
18,≤ 500 nM,CN(C)CCCC(=O)N1N=C(c2cc(F)ccc2F)SC12CCOc1ccccc12 (stereo not drawn) [compound 475]
19,> 500 nM,N[C@H]1CC[C@@H](C(=O)N2N=C(c3cc(F)ccc3F)SC23CCOc2ccccc23)C1 (stereo partly drawn) [compound 476]
20,> 500 nM,N[C@@H]1CC[C@H](C(=O)N2N=C(c3cc(F)ccc3F)SC23CCOc2ccccc23)C1 (stereo partly drawn) [compound 477]
21,> 500 nM,N[C@@H]1CC[C@@H](C(=O)N2N=C(c3cc(F)ccc3F)SC23CCOc2ccccc23)C1 (stereo partly drawn) [compound 478]
22,> 500 nM,N[C@H]1CCC[C@@H](C(=O)N2N=C(c3cc(F)ccc3F)SC23CCOc2ccccc23)C1 (stereo partly drawn) [compound 479]
23,> 500 nM,N[C@H]1CC[C@H](C(=O)N2N=C(c3cc(F)ccc3F)SC23CCOc2ccccc23)CC1 (stereo partly drawn) [compound 480]

row,EC50,Compound
1,> 500 nM,N[C@H]1CC[C@@H](C(=O)N2N=C(c3cc(F)ccc3F)SC23CCOc2ccccc23)CC1 (stereo partly drawn) [compound 481]
2,≤ 500 nM,O=C(CCC1CCCNC1)N1N=C(c2cc(F)ccc2F)SC12CCOc1ccccc12 (stereo not drawn) [compound 482]
3,500 to 1000 nM,O=C(CC1CCCNC1)N1N=C(c2cc(F)ccc2F)SC12CCOc1ccccc12 (stereo not drawn) [compound 483]
4,500 to 1000 nM,O=C(Cc1cccnc1)N1N=C(c2cc(F)ccc2F)SC12CCOc1ccccc12 (stereo not drawn) [compound 484]
5,≤ 500 nM,O=C(Cc1ccncc1)N1N=C(c2cc(F)ccc2F)SC12CCOc1ccccc12 (stereo not drawn) [compound 485]
6,500 to 1000 nM,O=C(CC1CCNCC1)N1N=C(c2cc(F)ccc2F)SC12CCOc1ccccc12 (stereo not drawn) [compound 486]
7,≤ 500 nM,NCCCCC(=O)N1N=C(c2cc(F)ccc2F)SC12CCOc1ccccc12 (stereo not drawn) [compound 487]
8,> 500 nM,NC(=O)CCC(=O)N1N=C(c2cc(F)ccc2F)SC12CCOc1ccccc12 (stereo not drawn) [compound 488]
9,≤ 500 nM,CNCCCC(=O)N1N=C(c2cc(F)ccc2F)SC12CCOc1ccccc12 (stereo not drawn) [compound 489]
10,≤ 500 nM,CC(N)CCC(=O)N1N=C(c2cc(F)ccc2F)SC12CCOc1ccccc12 (stereo not drawn) [compound 490]
11,500 to 1000 nM,O=C(CC1CNC1)N1N=C(c2cc(F)ccc2F)SC12CCOc1ccccc12 (stereo not drawn) [compound 491]
12,≤ 500 nM,O=C(CCCN1CCCC1)N1N=C(c2cc(F)ccc2F)SC12CCOc1ccccc12 (stereo not drawn) [compound 492]
13,> 500 nM,O=C1CCCN1CCCC(=O)N1N=C(c2cc(F)ccc2F)SC12CCOc1ccccc12 (stereo not drawn) [compound 493]
14,≤ 500 nM,O=C(CCCN1CCCCC1)N1N=C(c2cc(F)ccc2F)SC12CCOc1ccccc12 (stereo not drawn) [compound 494]
15,> 500 nM,O=C(CCCN1CCOCC1)N1N=C(c2cc(F)ccc2F)SC12CCOc1ccccc12 (stereo not drawn) [compound 495]
16,≤ 500 nM,O=C(CC1CCNC1)N1N=C(c2cc(F)ccc2F)SC12CCOc1ccccc12 (stereo not drawn) [compound 496]
17,500 to 1000 nM,O=C(CCC1CCCCN1)N1N=C(c2cc(F)ccc2F)SC12CCOc1ccccc12 (stereo not drawn) [compound 497]
18,≤ 500 nM,O=C(CCC1CCNCC1)N1N=C(c2cc(F)ccc2F)SC12CCOc1ccccc12 (stereo not drawn) [compound 498]
19,500 to 1000 nM,N[C@H]1C[C@@H](C(=O)N2N=C(c3cc(F)ccc3F)SC23CCOc2ccccc23)C1 (stereo partly drawn) [compound 499]
20,> 500 nM,N[C@H]1C[C@H](C(=O)N2N=C(c3cc(F)ccc3F)SC23CCOc2ccccc23)C1 (stereo partly drawn) [compound 500]
21,≤ 500 nM,N[C@H]1C[C@@H](C(=O)N2N=C(c3cc(F)ccc3F)SC23CCc2ccccc23)C1 (stereo partly drawn) [compound 501]
22,≤ 500 nM,N[C@H]1C[C@H](C(=O)N2N=C(c3cc(F)ccc3F)SC23CCc2ccccc23)C1 (stereo partly drawn) [compound 502]

# Same assay, conditions: Table 401; HCT116 cells, 16 hours with drug; read-out: ED50 (nM) Range
row,EC50,Compound
1,> 1000 nM,NC1CCC(C(=O)N2N=C(c3cc(F)ccc3F)SC23CCc2ccccc23)CC1 (stereo not drawn) [compound 445]
